# Patent EP1658093B1, “USE OF A MIXTURE CONTAINING OXYTOCIN AND TESTOSTERON OR ESTRADIOL FOR TREATING DISTURBANCES OF PSYCHOSOCIAL EXPERIENCES AND BEHAVIOUR” (Beier, Klaus M., priority 2003, dated 2007)
# How the values were obtained:
# [1] = Double-blind study: psychophysiological reaction patterns (SMARD-Watch), dynamic cross-correlation analysis; format: in vivo; details: mean over all 4 Probanden; Oxytocin nasal 4 or 8 I.E.; sex hormone as dermal patch (Estradiol in men, Testosteron in women); low coefficient = balanced sympathetic/parasympathetic regulation
# Description: (§1) Untersucht wurden 4 Probanden, zwei heterosexuelle Paare mit jeweils mehr als 20jähriger Partnerschaftsdauer. In einer Doppelblindstudie wurden Oxytocin gegen Placebo, die Kombinationen Oxytocin/Estradiol an Männern und Oxytocin/Testosteron an Frauen gegen Placebo und gegen den "Austausch von Intimität" untersucht.
# (§2) Den Männern wurde Oxytocin nasal als Spraystoß (1 Spraystoß Syntocinon® = 4 I.E. Oxytocin) und Estradiol dermal als Membranpflaster(2 mg Estradiol mit der Freisetzungsrate von ca. […]; Estraderm TTS® 25) verabreicht.
# (§3) Den Frauen wurde Oxytocin nasal als Spraystoß (1 Spraystoß Syntocinon® = 4 I.E. Oxytocin) und Testosteron dermal als Membranpflaster (12,2 mg Testosteron mit einer Freisetzungsrate von ca. 0,1 mg/h; Androderm® 2,5 mg) verabreicht.
# (§4) Die Verabreichung von Oxytocin erfolgte nasal und doppelblind (Placebo und Verum) in zwei Dosierungen, 1 Sprühstoß = 4 I.E. Oxytocin und zwei Sprühstöße = 8 I.E. Oxytocin, jeweils fortlaufend im Abstand von einer Stunde. Oxytocin wurde sowohl vor als auch nach der Anlage des Membranpflasters verabreicht. Insgesamt wurden 4 nasale Interventionen vor und nach der zusätzlichen Sexualhormongabe durchgeführt, wobei das Verum 2 mal in unterschiedlichen Dosierungen gegeben wurde. Die ersten nasalen Interventionen erfolgten nach 2 Stunden Wirkzeit der Sexualhormone. […]
# [2] = Double-blind study: subjective state descriptions by questionnaire; format: in vivo; details: 4 Probanden
# Description: as §1, §2, §3, §4
substance,measurement,setting,value
Oxytocin,Kreuzkorrelationskoeffizient,[1],"0,51"
same,subjektive Zustandsbeschreibungen (Selbstwahrnehmung),[2],stärker in Richtung Entspannung tendierte
